test: gradient 5% acetonitrile 3 min, to 50% in 2 min, to 85% in 15 min, held 3 min, 100 µL/min; conditions: column: Zorbax Extend-C18 2.1 x 50 mm; eluents: water / acetonitrile, 0.1% formic acid
How it was run: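 Mixtures of ~100 pure standards were chromatographed on a Zorbax Extend-C18 column (2.1 × 50 mm, 1.8 μm) at 100 μL/min using water and acetonitrile, each with 0.1% formic acid. Detection used a quadrupole time-of-flight mass spectrometer in positive and negative ionization mode, and data collection spanned 3 months. Retention time was obtained from adduct peaks picked computationally and each checked manually.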

Row | RP-LC retention time [s] | Compound
1 | 715 | Cc1ccc(NS(=O)(=O)c2cc(-c3[nH]ncc3C(=O)N3CCCC3)oc2C)cc1
2 | 771 | CCc1ccccc1NS(=O)(=O)c1cc2n(c1)CCN(CC)C2=O
3 | 1020 | O=C(C1COc2ccccc2O1)N(CCc1cccs1)Cc1ccco1 (configuration not stated)
4 | 744 | CCn1c(=O)c2ccn(CC(=O)NCc3ccc(SC)cc3)c2n(CC)c1=O
5 | 688 | CCOc1ccc(Cl)cc1S(=O)(=O)N1CCC(C(=O)NCCCO)CC1
6 | 626 | CCCNc1nc(C(=O)OCC)nc2ccccc12
7 | 976 | CCOc1ccc(NC(=O)c2cc(C)n3nc(C)cc3n2)cc1
8 | 842 | CCCCOc1ccc(CNC(=O)C2CCN(Cc3cn(CC)c4ccc(OC)cc34)CC2)cc1
9 | 850 | CCn1nccc1C(=O)N1CCCC1c1ccc(Cl)cc1 (configuration not stated)
10 | 716 | CC(C)CNC(=O)C1CCN(c2cnc(N3CCCCCC3)nc2)CC1
11 | 711 | CCN1C(=O)c2cccnc2Sc2cc(CNC(=O)c3ccc(OC)c(OC)c3)ccc21
12 | 860 | CCc1noc(NC(C)=O)c1-c1ccc(OC)c(S(=O)(=O)N2CCc3ccccc32)c1
13 | 576 | CCOC(=O)C1CCCN(Cc2nc3nc(C)cc(N4CCOCC4)n3n2)C1 (configuration not stated)
14 | 666 | Cc1cc(C)c(C)c(S(=O)(=O)N2CCc3nc[nH]c3C2)c1C
15 | 765 | CCNC(=O)c1nc(C(=O)NCc2ccccc2F)cs1
16 | 854 | O=C(Nc1ccc(Cl)cc1)C1CCN(S(=O)(=O)c2ccc3[nH]c(=O)sc3c2)CC1
17 | 861 | C=CCNC(=O)NC1CCN(C2=NS(=O)(=O)C(c3cccc(Cl)c3)=C2C)CC1
18 | 680 | O=C(NCc1cccc(C(F)(F)F)c1)C1(CCO)CCN(Cc2ccccc2)C1 (configuration not stated)
19 | 722 | Cc1cc(C)cc(NC(=O)N2CC(n3cnnc3-c3ccccc3)C2)c1
20 | 998 | COc1ccccc1NC(=O)Cn1c(C)cc(-c2nnc(-c3ccc(F)cc3)o2)c1C
21 | 640 | CCOc1ccc(S(=O)(=O)[C@H]2CS(=O)(=O)C[C@@H]2N2CCN(c3ccccn3)CC2)cc1
22 | 585 | CN1CCN(c2nc(C(=O)NC3CCCC3)cs2)CC1

Row | RP-LC retention time [s] | Compound
23 | 740 | O=C(CC1CCCN(c2cnn(CC3CC3)c(=O)c2)C1)N1CCSCC1 (configuration not stated)
24 | 949 | CCCCN(Cc1ccco1)C(=O)C1CCCN(c2ncnc3c2nc2n3CCCCC2)C1 (configuration not stated)
25 | 703 | Cc1ccccc1C(=O)N1CCC2(C1)C(=O)Nc1ccccc12 (configuration not stated)
26 | 595 | CCc1nncn1C1CCN(C(=O)c2cc(-c3cccs3)[nH]n2)C1 (configuration not stated)
27 | 1110 | O=S(=O)(c1ccccc1C(F)(F)F)N1CCc2nc(-c3ccccc3)ncc2C1
28 | 726 | Cc1cc(NC(=O)CSc2nc3ccccc3o2)sn1
29 | 657 | CCS(=O)(=O)NCc1ccc2c(c1)CCN2C(=O)c1ccccc1
30 | 639 | O=C(Nc1cccc(F)c1)C1(CCO)CCN(c2ncccn2)C1 (configuration not stated)
31 | 641 | COc1ccc(-c2cn3cccnc3n2)cc1NC(=O)c1ccc(OC)c(OC)c1
32 | 668 | O=C(Cn1nc2c3ccc(F)cc3ncn2c1=O)NCc1ccc(F)cc1
33 | 1080 | COc1ccc(Cn2c(=O)c3sccc3n(Cc3nc(-c4ccc(F)cc4)no3)c2=O)cc1
34 | 770 | CCC(C(=O)Nc1ccc(OC)cc1)n1cnc2nc3c(cc2c1=O)CCCC3 (configuration not stated)
35 | 765 | COc1cc(NC(=O)N2CCC(C)(C(=O)NCc3ccc(C)cc3)CC2)cc(OC)c1OC
36 | 1050 | CCc1nc(-c2csc(S(=O)(=O)N3CCCC(C(=O)NCc4ccccc4Cl)C3)c2)no1 (configuration not stated)
37 | 849 | COc1ccc(NC(=O)c2cnc3c(c2)c(=O)n(C)c(=O)n3-c2ccc(C)cc2)cc1F
38 | 1150 | COc1ccc(-c2noc(-c3cccnc3N3CCN(c4ccccc4OC)CC3)n2)cc1
39 | 581 | CCOc1ccccc1NC(=O)N1CCN(CCNC(=O)c2ccc3c(c2)OCO3)CC1
40 | 600 | COCCn1nc2n(c1=O)CCC1(CC2)CCN(C(=O)C2CCCO2)CC1 (configuration not stated)
41 | 946 | Cc1cc(-c2nnc(-c3ccc(F)cc3)o2)c(C)n1CC(=O)NC(C)c1ccccc1 (configuration not stated)
42 | 762 | CC(C)c1ccc(NC(=O)Cn2cnc3nc4c(cc3c2=O)CCCC4)cc1
43 | 1240 | CCCN(C(C)=O)c1nc(-c2ccc(Br)cc2)cs1
44 | 1250 | CCN(CC)C(=O)COc1cc(C(F)(F)F)c2c(C)nn(-c3ccc(C)cc3)c2n1

Row | RP-LC retention time [s] | Compound
45 | 718 | CCN(c1ccccc1)S(=O)(=O)c1cc(-c2[nH]ncc2C(=O)N2CCOCC2)oc1C
46 | 912 | O=C(Nc1ccc(F)cc1F)c1cc2n(n1)CCCC2
47 | 705 | CN1C(=O)C(CC(=O)N2CCCCCC2)Sc2ncccc21 (configuration not stated)
48 | 699 | Cc1cc2n(n1)CCCN2C(=O)CCC(=O)N1CCc2ccccc2C1
49 | 637 | COc1ccc(Cl)cc1NC(=O)NCCc1ccc(N(C)C)cc1
50 | 592 | Cc1cc(C(=O)NCCN2CCCCCC2)c2c(=O)n(C)c(=O)n(C)c2n1
51 | 931 | CC(C)c1cccc(NC(=O)C2CCN(C(=O)c3ncn4c3COC(c3ccc(F)cc3)C4)CC2)c1 (configuration not stated)
52 | 576 | Cn1cc(C(=O)NCc2ccc(N3CCCCC3)cc2)c2cccnc21
53 | 568 | CCN(CC)C(=O)N1CC(Cn2c(C)cnc2-c2ccncc2)C1
54 | 776 | COc1ccc(NC(=O)CCc2c(C)nn(-c3cc(N(C)C)ncn3)c2C)c(OC)c1
55 | 707 | O=C(Cn1nc2c3ccc(F)cc3ncn2c1=O)Nc1ccc2c(c1)OCO2
56 | 871 | CN1C(=O)C2CCCCN2c2ccc(C(=O)NCCc3c[nH]c4ccccc34)cc21 (configuration not stated)
57 | 849 | O=C(CCCc1ccccc1)Nc1cnn(-c2ncc(N3CCCC3)cn2)c1
58 | 838 | O=C(NCc1cccc(Cl)c1)C1c2ccccc2CCN1C(=O)C1CC1 (configuration not stated)
59 | 848 | O=C(CSc1ccc(-c2cccs2)nn1)N1CCN(c2ccccc2)CC1
60 | 678 | CCNc1cc(N2CCC(CCC(=O)NCc3cccc(Cl)c3)CC2)ncn1
61 | 817 | CC(C)Cn1cc(CCNC(=O)C2CCCCC2)c2cccnc21
62 | 710 | Cc1oc(-c2[nH]ncc2C(=O)N2CCCCC2)cc1S(=O)(=O)Nc1cccc(F)c1
63 | 1140 | CC(=O)Nc1ccc(-c2nc(-c3cccc(-c4ccnn4C)c3)no2)cc1
64 | 857 | Cc1sc(NC(=O)c2ccccc2)nc1-c1ccc2c(c1)NC(=O)CO2
65 | 604 | O=C1CC(NC(=O)c2cc(-c3ccc(F)cc3)n[nH]2)CN1 (configuration not stated)
66 | 691 | O=C(CCn1cnc2cc(-c3noc(Cc4cccs4)n3)ccc21)N1CCCC1

Row | Compound | RP-LC retention time [s]
67 | O=C(COc1ccccc1F)N1CCN(Cc2nc(C3CC3)cs2)CC1 | 640

From the METLIN SMRT retention time set (Domingo-Almenara et al. 2019)
